Source: paper PMC12203613 (Journal of Agricultural and Food Chemistry, 2025)

Tests used:
Format in all cases: biochemical
[1] = biological target: T1, AtHPPD (4-hydroxyphenylpyruvate dioxygenase) (Arabidopsis thaliana, UniProt P93836); test: coupled enzyme assay
T1 sequence (P93836 1-445): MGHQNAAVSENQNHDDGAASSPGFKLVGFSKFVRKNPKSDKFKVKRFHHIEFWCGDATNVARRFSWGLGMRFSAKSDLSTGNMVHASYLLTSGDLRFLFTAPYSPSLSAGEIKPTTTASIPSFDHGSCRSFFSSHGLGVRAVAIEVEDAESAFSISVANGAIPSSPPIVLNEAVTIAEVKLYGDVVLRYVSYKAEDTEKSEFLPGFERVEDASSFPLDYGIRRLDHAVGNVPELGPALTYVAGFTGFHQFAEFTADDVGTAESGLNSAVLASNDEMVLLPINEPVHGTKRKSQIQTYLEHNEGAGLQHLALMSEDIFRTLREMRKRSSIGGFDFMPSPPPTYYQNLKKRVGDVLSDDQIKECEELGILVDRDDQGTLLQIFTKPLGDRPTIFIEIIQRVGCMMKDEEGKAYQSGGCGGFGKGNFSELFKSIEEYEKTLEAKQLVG

[2] = biological target: T2, OsHPPD (4-hydroxyphenylpyruvate dioxygenase) (Oryza sativa, UniProt Q6H4V1); test: coupled enzyme assay
T2 sequence (Q6H4V1 2-446): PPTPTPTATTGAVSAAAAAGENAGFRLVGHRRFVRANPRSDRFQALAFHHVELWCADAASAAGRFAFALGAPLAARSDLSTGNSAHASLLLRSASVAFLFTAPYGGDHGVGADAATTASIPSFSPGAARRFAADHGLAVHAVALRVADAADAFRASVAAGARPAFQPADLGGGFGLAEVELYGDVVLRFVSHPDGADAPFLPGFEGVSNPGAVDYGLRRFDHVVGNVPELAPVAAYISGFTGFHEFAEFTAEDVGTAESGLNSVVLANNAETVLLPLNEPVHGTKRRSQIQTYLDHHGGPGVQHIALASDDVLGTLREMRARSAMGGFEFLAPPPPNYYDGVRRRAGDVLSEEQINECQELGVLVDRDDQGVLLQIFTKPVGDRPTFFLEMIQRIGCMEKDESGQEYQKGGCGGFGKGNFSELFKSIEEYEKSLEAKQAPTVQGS

[3] = biological target: T2, OsHPPD (4-hydroxyphenylpyruvate dioxygenase); test: X-ray co-crystal structure at […] Å
[4] = biological target: T1, AtHPPD (4-hydroxyphenylpyruvate dioxygenase); test: X-ray co-crystal structure at […] Å

SMILES | Ki [1] | Ki [2] | Ki [3] | Ki [4]
CS(=O)(=O)c1ccc(C(=O)C2C(=O)CCCC2=O)c([N+](=O)[O-])c1 [mesotrione] | 22.1 ± 4.5 nM | 26.5 ± 10.8 nM | – | –
Cc1nnc(NC(=O)c2ccc(C(F)(F)F)n3c(CS(=O)(=O)C(C)C)nnc23)o1 [iptriazopyrid, 3-[(isopropylsulfonyl)-methyl]-N-(5-methyl-1,3,4-oxadiazol-2-yl)-5-(trifluoromethyl)-[1,2,4]-triazolo[4,3-a]-pyridine-8-carboxamide] | – | – | 33.3 ± 3.3 nM | 24.3 ± 0.3 nM
